Results: patent US10253081B2, “Glucagon analogues” (Zealand Pharma A/S, priority 2012, dated 2019)
*1 amine or outer side, *2 acyl side, *3 side chain or, on linkers, in order; H or OH if unused. Where a SMILES comes first, the peptide text is derived from it. Side-chain parts run from the residue outwards. [ ]: non-standard residue; d: D form. The star is where a group is joined. γGlu = O=C(O)[C@H](CCC(=O)[*:2])N[*:1]; Palmitoyl = CCCCCCCCCCCCCCCC(=O)*; Aib = CC(C)(N)C(=O)O

Experiments:
Format in all cases: cell-based
[1] = target: T1, human glucagon-like peptide 1 receptor (GLP-1R) (Homo sapiens, UniProt P43220); assay: GLP-1 receptor efficacy assay (cAMP AlphaScreen, CHO cells); conditions: Table 1B; for Ratio GLP-1/Glucagon: EC50 [GLP-1R]/EC50 [Glucagon-R]; for EC50: same protocol, different laboratory, read-out: EC50 hGLP-1R CHO-K1
T1 construct: expressed in transfected cells
Text: (§1) The cDNA encoding either the human glucagon receptor (Glucagon-R) (primary accession number P47871) or the human glucagon-like peptide 1 receptor (GLP-1R) (primary accession number P43220) were synthesized and cloned into a mammalian expression vector containing a Zeocin resistance marker.
(§2) The mammalian expression vectors encoding the Glucagon-R or the GLP-1-R were transfected into Chinese hamster ovary (CHO) cells by the Attractene method method. Stably expressing clones were obtained by Zeocin selection (250 μg/mL) upon limited dilution of cells resistant to the selection pressure. Glucagon-R and GLP-1-R cell clones expressing were picked, propagated and tested in the Glucagon-R and GLP-1-R efficacy assays as described below. One Glucagon-R expressing clone and one GLP-1-R expressing clone were chosen for compound profiling.
(§3) CHO cells expressing the human Glucagon-R, or human GLP-1-R were seeded 24 hours prior to the assay at 30,000 cells per well in 96-well microtiter plates in culture in 100 μl growth medium. On the day of analysis, growth medium was removed and the cells were washed once with 200 μl of assay buffer (Krebs-Ringer-buffer—KRBH). The buffer was removed and the cells were incubated for 15 min at room temperature in 10 μl KRBH (KRBH+10 mM HEPES, 5 mM NaHCO3, 0.1% (V/V) BSA) with 0.1 mM IBMX in deionized water containing increasing concentrations of test peptides. The reaction was stopped by the addition of lysis buffer (0.1% w/v BSA, 5 mM HEPES, 0.3% v/v Tween-20). After cell lysis for 10 min at room temperature, lysates were transferred to 384-well plates and 10 μl of acceptor/donorbead mixture as contained in the AlphaScreen™ cAMP Functional Assay Kit was added. After one hour of incubation at room temperature in the dark, the cAMP content was determined applying the AlphaScreen™ cAMP Functional Assay Kit from Perkin-Elmer according to manufacturer instructions. EC50 and relative efficacies compared to reference compounds (glucagon and GLP-1) were calculated applying computer aided curve fitting. The GLP-1/glucagon ratio is calculated as defined earlier.

[2] = target: T2, human glucagon receptor (Glucagon-R) (Homo sapiens, UniProt P47871); assay: Glucagon receptor efficacy assay (cAMP AlphaScreen, CHO cells); conditions: Table 1B; same protocol, different laboratory; read-out: EC50 hGCGR CHO-K1
T2 construct: expressed in transfected cells
Text: as §1, §2, §3

[3] = target: T3, endogenous glucagon receptor (Rattus norvegicus, UniProt P30082); assay: Agonistic activity on endogenous glucagon receptor (glycogen synthesis rate in primary rat hepatocytes); conditions: inhibition of glycogen synthesis rate, 3 hours, read-out: EC50 GLP-1R Rat hepat.
T3 construct: Agonistic activity of the test compounds on endogenous glucagon receptor; endogenous in cells; host or cells: primary rat hepatocytes
Experimental: Agonistic activity of the test compounds on endogenous glucagon receptor was determined by measuring their effect on rate of glycogen synthesis in primary rat hepatocytes. Upon activation of the glucagon receptor, an inhibition of the glycogen synthesis rate is expected. Rate of glycogen synthesis was determined by counting the amount of radioactively labeled glucose incorporated into the cellular glycogen stores in a defined period of time.
Primary rat hepatocytes were cultured at a density of 40,000 cells/well in a 24-well plate for 24 hours at 37° C. and 5% CO2.
Medium was discarded and the cells washed with PBS. 180 μL of KRBH-based buffer containing 0.1% BSA and glucose at a concentration of 22.5 mM was then added to the wells, followed by test compound and 40 μCi/ml D-[U14C] glucose (20 μL each). Incubation was continued for 3 hours.
At the end of the incubation period, the incubation buffer was aspirated and cells washed once with ice-cold PBS before lysis by incubation for 30 min at room temperature with 100 μL 1 mol/l NaOH.
Cell lysates were transferred to 96-well filter plates and glycogen precipitated by incubating the filter-plates for 120 min at 4° C. followed by washing the filter plates 4 times with ice-cold ethanol (70%). The resulting precipitates were filtered to dryness and the amount of incorporated ^14C-glucose determined by using a Topcount scintillation counter according to manufacturer's recommendations.
Wells with vehicle controls (0.1% (v/v) DMSO in KRBH buffer) were included as reference for non-inhibited glycogen synthesis (100% CTL). Wells without added D-[U^14C] glucose were included as controls for non-specific background signal (subtracted from all values). Endogenous glucagon peptide was used as a positive control.
All treatments were performed at least in triplicates.
Parameters calculated to describe the both the potency as well as the agonistic activity of each test compound on the endogenous glucagon receptor are pEC50 and % CTL. % CTL is determined by calculating the percentage of CPM/well in the presence of the test compound compared to the CPM/well of the vehicle control after subtracting the background CPM/well: [CPM/well(basal)−CPM/well(sample)]*100/[CPM/well(basal)−CPM/well(control)]
An activator of the glucagon receptor will result in an inhibition of the glycogen synthesis rate and will give % CTL values between 0% CTL (complete inhibition) and 100% CTL (no observable inhibition).
The resulting activity curves were plotted as absolute counts (unit: cpm/sample) over log (test compound concentration) and analyzed using the curve fitting program XLfit.
pEC50 (negative logarithmic value of EC50) reflects the potency of the test compound.
The terms EC50 and pEC50 quoted in relation to GLP-1R activation could equally be regarded as IC50 and pIC50 in relation to glycogen synthesis.

[4] = target: T4, endogenous GLP-1 receptors (Mus musculus, UniProt O35659); assay: Agonistic activity on endogenous GLP-1 receptor (cAMP, murine insulinoma cell line); conditions: intracellular cAMP, 15 minutes at 26° C.; read-out: EC50 GLP-1R (murine insulinoma cells)
T4 construct: Agonistic activity of the test compounds on endogenous GLP-1 receptors; endogenous in cells
T4 sequence (O35659 22-463): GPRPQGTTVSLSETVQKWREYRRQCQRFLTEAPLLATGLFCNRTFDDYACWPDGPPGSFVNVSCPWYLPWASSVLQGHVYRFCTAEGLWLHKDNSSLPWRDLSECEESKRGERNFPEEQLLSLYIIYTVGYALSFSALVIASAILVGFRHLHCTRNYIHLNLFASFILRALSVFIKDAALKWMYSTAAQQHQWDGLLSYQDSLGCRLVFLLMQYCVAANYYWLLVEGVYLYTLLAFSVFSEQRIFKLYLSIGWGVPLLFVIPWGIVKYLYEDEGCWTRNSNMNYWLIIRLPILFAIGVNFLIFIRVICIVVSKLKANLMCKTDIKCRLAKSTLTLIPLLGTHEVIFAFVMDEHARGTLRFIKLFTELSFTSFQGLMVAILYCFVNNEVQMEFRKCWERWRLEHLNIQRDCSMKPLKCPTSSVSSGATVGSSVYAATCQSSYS
Experimental: Agonistic activity of the test compounds on endogenous GLP-1 receptors was determined using a murine insulinoma cell line. Intracellular cAMP was used an indicator of receptor activation.
Cells were cultured for 24 h at a density of 10,000 cells/well in a 384-well plate. Medium was removed and 10 μL KRBH buffer (NaCl 130 mM, KCl 3.6 mM, NaH2PO4 0.5 mM, MgSO4 0.5 mM, CaCl2) 1.5 mM) containing test compound or GLP-1 (at increasing concentrations from […] to 100 nM) or solvent control (0.1% (v/v) DMSO) was added to the wells for 15 minutes at a temperature of 26° C.
The cellular cAMP content is measured using the AlphaScreen cAMP Functional Assay Kit (Perkin Elmer). Measurement was performed using the Envision (PerkinElmer) according to manufacturer's recommendations.
All measurements were performed in quadruplicate.
Results were converted into cAMP concentrations using a cAMP standard curve prepared in KRBH buffer containing 0.1% (v/v) DMSO. The resulting cAMP curves were plotted as absolute cAMP concentrations (nM) over log (test compound concentration) and analyzed using the curve fitting program XLfit.
Parameters calculated to describe the both the potency as well as the agonistic activity of each test compound on the endogenous GLP-1 receptors were:
pEC50 (negative logarithmic value of EC50, a concentration resulting in a half-maximal elevation of cAMP levels, reflecting the potency of the test compound);
Percent control (% CTL)(% cAMP elevation for each test compound concentration normalized based on the GLP-1-induced maximum cAMP response (100% CTL)).

T1 sequence (P43220 24-463): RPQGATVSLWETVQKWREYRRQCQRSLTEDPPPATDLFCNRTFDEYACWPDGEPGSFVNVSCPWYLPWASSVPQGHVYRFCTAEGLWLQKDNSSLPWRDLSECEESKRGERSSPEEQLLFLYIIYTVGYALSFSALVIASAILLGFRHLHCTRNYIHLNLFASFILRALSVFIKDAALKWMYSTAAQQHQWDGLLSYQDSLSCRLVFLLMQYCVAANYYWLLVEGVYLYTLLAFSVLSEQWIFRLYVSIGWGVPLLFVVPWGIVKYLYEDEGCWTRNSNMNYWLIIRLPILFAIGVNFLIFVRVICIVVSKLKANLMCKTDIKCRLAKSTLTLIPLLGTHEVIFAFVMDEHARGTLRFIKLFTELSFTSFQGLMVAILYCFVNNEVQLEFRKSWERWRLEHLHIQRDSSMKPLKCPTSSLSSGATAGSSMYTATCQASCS
T2 sequence (P47871 26-477): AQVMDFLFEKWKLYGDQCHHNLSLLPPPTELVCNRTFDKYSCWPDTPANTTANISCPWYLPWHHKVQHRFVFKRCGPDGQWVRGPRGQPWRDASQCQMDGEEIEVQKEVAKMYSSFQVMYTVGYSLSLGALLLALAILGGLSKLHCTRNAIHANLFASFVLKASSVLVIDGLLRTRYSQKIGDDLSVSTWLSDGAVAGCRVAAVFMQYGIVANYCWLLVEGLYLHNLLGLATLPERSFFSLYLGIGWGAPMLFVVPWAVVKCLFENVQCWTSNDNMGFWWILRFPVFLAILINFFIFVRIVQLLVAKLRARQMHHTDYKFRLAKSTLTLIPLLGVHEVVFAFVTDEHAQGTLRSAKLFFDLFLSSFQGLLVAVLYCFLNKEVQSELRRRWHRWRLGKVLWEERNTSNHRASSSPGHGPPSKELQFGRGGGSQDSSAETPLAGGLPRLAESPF
T3 sequence (P30082 27-485): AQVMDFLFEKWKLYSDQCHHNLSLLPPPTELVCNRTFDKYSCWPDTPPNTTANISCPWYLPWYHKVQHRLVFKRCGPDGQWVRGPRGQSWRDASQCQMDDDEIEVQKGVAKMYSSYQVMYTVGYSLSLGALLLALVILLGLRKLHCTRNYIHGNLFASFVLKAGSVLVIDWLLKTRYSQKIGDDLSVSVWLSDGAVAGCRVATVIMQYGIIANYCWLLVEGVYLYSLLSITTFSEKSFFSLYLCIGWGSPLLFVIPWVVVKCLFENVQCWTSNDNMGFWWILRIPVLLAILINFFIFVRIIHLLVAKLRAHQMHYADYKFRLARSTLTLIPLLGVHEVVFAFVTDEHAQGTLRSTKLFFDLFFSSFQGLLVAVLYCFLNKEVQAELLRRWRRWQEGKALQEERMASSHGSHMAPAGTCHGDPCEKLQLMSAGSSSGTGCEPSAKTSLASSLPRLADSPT

Row | Ratio GLP-1/Glucagon [1] | EC50 [1] [nM] | EC50 [2] [nM] | EC50 [3] [nM] | EC50 [4] [nM] | Compound
1 | 6.2 | 0.87 | 0.14 | 0.18 | 0.99 | CCCCCCCCCCCCCCCC(=O)N[C@@H](CCC(=O)NCCCC[C@H](NC(=O)[C@H](CCC(=O)O)NC(=O)[C@H](CCC(=O)O)NC(=O)[C@H](CC(C)C)NC(=O)[C@H](Cc1ccc(O)cc1)NC(=O)[C@H](CCCCN)NC(=O)[C@H](CO)NC(=O)[C@H](Cc1ccc(O)cc1)NC(=O)[C@H](CC(=O)O)NC(=O)[C@H](CO)NC(=O)[C@@H](NC(=O)[C@H](Cc1ccccc1)NC(=O)[C@@H](NC(=O)CNC(=O)[C@H](Cc1c[nH]cn1)NC(=O)[C@H](CO)NC(=O)[C@@H](N)Cc1c[nH]cn1)[C@@H](C)O)[C@@H](C)O)C(=O)N[C@@H](C)C(=O)N[C@@H](C)C(=O)N[C@@H](Cc1c[nH]cn1)C(=O)N[C@@H](CCC(=O)O)C(=O)N[C@@H](Cc1ccccc1)C(=O)N[C@H](C(=O)N[C@@H](CCC(=O)O)C(=O)N[C@@H](Cc1c[nH]c2ccccc12)C(=O)N[C@@H](CC(C)C)C(=O)N[C@@H](CCC(=O)O)C(=O)N[C@@H](CO)C(=O)N[C@@H](C)C(=O)O)[C@@H](C)CC)C(=O)O [Compound 18, H-HSHGTFTSDYSKYLEE-K(Hexadecanoyl-isoGlu)-AAHEFIEWLESA-OH] (H-HSHGTFTSDYSKYLEEK([γGlu-Palmitoyl])AAHEFIEWLESA-OH)
2 | 0.09 | 0.12 | 1.32 | 3.4 | 0.3 | CCCCCCCCCCCCCCCC(=O)N[C@@H](CCC(=O)NCCCC[C@H](NC(=O)[C@H](CO)NC(=O)[C@H](CCC(=O)O)NC(=O)[C@H](CC(C)C)NC(=O)[C@H](Cc1ccc(O)cc1)NC(=O)[C@H](CCCCN)NC(=O)[C@H](CO)NC(=O)[C@H](Cc1ccc(O)cc1)NC(=O)[C@H](CC(=O)O)NC(=O)[C@H](CO)NC(=O)[C@@H](NC(=O)[C@H](Cc1ccccc1)NC(=O)[C@@H](NC(=O)CNC(=O)[C@H](CCC(N)=O)NC(=O)C(C)(C)NC(=O)[C@@H](N)Cc1c[nH]cn1)[C@@H](C)O)[C@@H](C)O)C(=O)N[C@@H](C)C(=O)N[C@@H](C)C(=O)N[C@@H](CCC(=O)O)C(=O)N[C@@H](CC(=O)O)C(=O)N[C@@H](Cc1ccccc1)C(=O)N[C@H](C(=O)N[C@@H](CCC(=O)O)C(=O)N[C@@H](Cc1c[nH]c2ccccc12)C(=O)N[C@@H](CC(C)C)C(=O)N[C@@H](CCC(=O)O)C(=O)N[C@@H](CO)C(=O)N[C@@H](C)C(N)=O)[C@@H](C)CC)C(=O)O [Compound 21, H-H-Aib-QGTFTSDYSKYLES-K(Hexadecanoyl-isoGlu)-AAEDFIEWLESA-NH2] (H-H[Aib]QGTFTSDYSKYLESK([γGlu-Palmitoyl])AAEDFIEWLESA-NH2)
3 | 0.12 | 0.11 | 0.92 | 6.15 | 0.33 | CCCCCCCCCCCCCCCC(=O)N[C@@H](CCC(=O)NCCCC[C@H](NC(=O)[C@H](CO)NC(=O)[C@H](CCC(=O)O)NC(=O)[C@H](CC(C)C)NC(=O)[C@H](Cc1ccc(O)cc1)NC(=O)[C@H](CCCCN)NC(=O)[C@H](CO)NC(=O)[C@H](Cc1ccc(O)cc1)NC(=O)[C@H](CC(=O)O)NC(=O)[C@H](CO)NC(=O)[C@@H](NC(=O)[C@H](Cc1ccccc1)NC(=O)[C@@H](NC(=O)CNC(=O)[C@H](CCC(N)=O)NC(=O)C(C)(C)NC(=O)[C@@H](N)Cc1c[nH]cn1)[C@@H](C)O)[C@@H](C)O)C(=O)N[C@@H](C)C(=O)N[C@@H](C)C(=O)N[C@@H](CCC(=O)O)C(=O)N[C@@H](CC(=O)O)C(=O)N[C@@H](Cc1ccccc1)C(=O)N[C@H](C(=O)N[C@@H](CCC(=O)O)C(=O)N[C@@H](Cc1c[nH]c2ccccc12)C(=O)N[C@@H](CC(C)C)C(=O)N[C@@H](CCC(=O)O)C(=O)N[C@@H](CO)C(=O)N[C@@H](C)C(N)=O)C(C)C)C(=O)O [Compound 24, H-H-Aib-QGTFTSDYSKYLES-K(Hexadecanoyl-isoGlu)-AAEDFVEWLESA-NH2] (H-H[Aib]QGTFTSDYSKYLESK([γGlu-Palmitoyl])AAEDFVEWLESA-NH2)
